Results taken from patent US20260365670A1, “EGFR INHIBITORS AND USES THEREOF” (DIZAL (JIANGSU) PHARMACEUTICAL CO., LTD., priority 2022, published 2026).
Like-named read-outs stand apart in the source and are kept apart here.

What was measured:
A-431 = assay: Cell proliferation assay, A-431 cells (GI50, Table 6); type: cell-based; conditions: Homo sapiens, A-431, A-431 cells
EGFR Exon19Del/T790M = target: T1, EGFR Exon19Del/T790M (Homo sapiens, UniProt P00533, DEL746-750/T790M); assay: Inhibition of EGFR Exon19Del/T790M biochemical enzymatic activity (HTRF); conditions: EGFR Del19-T790M, 1 mM ATP, 1 h, room temperature, read-out: IC50 (nM) @Del19-T790M
T1 construct: purchased Carna Bio
Method in brief: (§1)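 In a buffer with 5 mM MgCl2, 1 mM MnCl2, 1 mM DTT and 0.01% CHAPS, enzyme turnover of 1 μM biotinylated TK substrate at 1 mM ATP is followed by HTRF after 1 h at room temperature. IC50 is obtained by a four-parameter fit.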

EGFR wild type = target: T2, EGFR wild type (Homo sapiens, UniProt P00533); assay: Inhibition of EGFR wild type biochemical enzymatic activity (HTRF); conditions: EGFR WT, 1 mM ATP, 1 h, room temperature, read-out: IC50 (nM) @WT
T2 construct: purchased Carna Bio
Method in brief: as §1

[1] = target: T3, EGFR[T790M/C797S/d746-750] (Homo sapiens, UniProt P00533, C797S/DEL746-750/T790M); assay: Inhibition of EGFR[T790M/C797S/d746-750] biochemical enzymatic activity (HTRF); conditions: EGFR T790M-C797S-Del19, 1 mM ATP, 1 h, room temperature, read-out: IC50 (nM) @T790M - C797S - Del19
T3 construct: purchased Carna Bio
Method in brief: as §1

EGFR L858R/T790M = target: T4, EGFR L858R/T790M (Homo sapiens, UniProt P00533, L858R/T790M); assay: Inhibition of EGFR L858R/T790M biochemical enzymatic activity (HTRF); conditions: EGFR L858R-T790M, 1 mM ATP, 1 h, room temperature, read-out: IC50 (nM) @L858R-T790M
T4 construct: purchased Carna Bio
Method in brief: as §1

EGFR (d746-750 C797S) = target: T5, EGFR (d746-750 C797S) (Homo sapiens, UniProt P00533, C797S/DEL746-750); assay: Inhibition of EGFR (d746-750 C797S) biochemical enzymatic activity (HTRF); conditions: EGFR Del19-C797S, 1 mM ATP, 1 h, room temperature, read-out: IC50 (nM) @Del19-C797S
T5 construct: purchased signalchem
Method in brief: as §1

EGFR[T790M/C797S/L858R] = target: T6, EGFR[T790M/C797S/L858R] (Homo sapiens, UniProt P00533, C797S/L858R/T790M); assay: Inhibition of EGFR[T790M/C797S/L858R] biochemical enzymatic activity (HTRF); conditions: EGFR T790M-C797S-L858R, 1 mM ATP, 1 h, room temperature, read-out: IC50 (nM) @T790M- C797S - L858R
T6 construct: purchased Carna Bio
Method in brief: as §1

EGFR (C797S L858R) = target: T7, EGFR (C797S L858R) (Homo sapiens, UniProt P00533, C797S/L858R); assay: Inhibition of EGFR (C797S L858R) biochemical enzymatic activity (HTRF); conditions: EGFR L858-C797S, 1 mM ATP, 1 h, room temperature, read-out: IC50 (nM) @L858-C797S
T7 construct: purchased signalchem
Method in brief: as §1

EGFR Exon19Del = target: T8, EGFR Exon19Del (Homo sapiens, UniProt P00533, DEL746-750); assay: Inhibition of EGFR Exon19Del biochemical enzymatic activity (HTRF); conditions: EGFR Del19, 1 mM ATP, 1 h, room temperature, read-out: IC50 @Del19
T8 construct: purchased Carna Bio
Method in brief: as §1

PC-9 = assay: Cell proliferation assay, PC-9 cells (CellTiter-Glo, 72 hours); type: cell-based; conditions: Homo sapiens, PC-9, 72 h, PC9 cells, read-out: GI50 PC9
Method in brief: (§2)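 Luminescent viable-cell counts were taken on a day 0 plate at dosing and again at endpoint. Proliferation was calculated as (sample − G0)/(DMSO − G0). Seeding was 5000 Ba/F3 or 500 PC-9 cells per well in RPMI1640, followed by overnight attachment and serial compound dilutions. The GI50 was fitted.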

[2] = system: Ba/F3 cells expressing EGFR mutations; assay: Cell proliferation assay, Ba/F3 cells expressing EGFR mutations (CellTiter-Glo, 72 hours); type: cell-based; conditions: Mus musculus, BaF3, 72 h
Method in brief: as §2

EGFR L858R = target: T9, EGFR L858R (Homo sapiens, UniProt P00533, L858R); assay: Inhibition of EGFR L858R biochemical enzymatic activity (HTRF); conditions: 1 mM ATP, 1 h, room temperature, read-out: IC50 (nM) @L858R
T9 construct: purchased Carna Bio
Method in brief: as §1

[3] = BaF3 cells, EGFR DEL19 - C797S, read-out: GI50 DEL19 - C797S/BaF3
[4] = BaF3 cells, EGFR DEL19 - T790-C797S, read-out: GI50 DEL19 - T790-C797S/BaF3
[5] = BaF3 cells, EGFR L858R - C797S, read-out: GI50 L858R - C797S/BaF3
[6] = BaF3 cells, EGFR L858R - T790-C797S, read-out: GI50 L858R - T790-C797S/BaF3
[7] = BaF3 cells, EGFR L858R - T790M, read-out: GI50 L858R - T790M/BaF3
[8] = BaF3 cells, EGFR L858R, read-out: GI50 L858R/BaF3
[9] = EGFR DEL19 - T790M, read-out: GI50 DEL19 - T790M

T7 sequence (P00533 25-1210 C797S/L858R): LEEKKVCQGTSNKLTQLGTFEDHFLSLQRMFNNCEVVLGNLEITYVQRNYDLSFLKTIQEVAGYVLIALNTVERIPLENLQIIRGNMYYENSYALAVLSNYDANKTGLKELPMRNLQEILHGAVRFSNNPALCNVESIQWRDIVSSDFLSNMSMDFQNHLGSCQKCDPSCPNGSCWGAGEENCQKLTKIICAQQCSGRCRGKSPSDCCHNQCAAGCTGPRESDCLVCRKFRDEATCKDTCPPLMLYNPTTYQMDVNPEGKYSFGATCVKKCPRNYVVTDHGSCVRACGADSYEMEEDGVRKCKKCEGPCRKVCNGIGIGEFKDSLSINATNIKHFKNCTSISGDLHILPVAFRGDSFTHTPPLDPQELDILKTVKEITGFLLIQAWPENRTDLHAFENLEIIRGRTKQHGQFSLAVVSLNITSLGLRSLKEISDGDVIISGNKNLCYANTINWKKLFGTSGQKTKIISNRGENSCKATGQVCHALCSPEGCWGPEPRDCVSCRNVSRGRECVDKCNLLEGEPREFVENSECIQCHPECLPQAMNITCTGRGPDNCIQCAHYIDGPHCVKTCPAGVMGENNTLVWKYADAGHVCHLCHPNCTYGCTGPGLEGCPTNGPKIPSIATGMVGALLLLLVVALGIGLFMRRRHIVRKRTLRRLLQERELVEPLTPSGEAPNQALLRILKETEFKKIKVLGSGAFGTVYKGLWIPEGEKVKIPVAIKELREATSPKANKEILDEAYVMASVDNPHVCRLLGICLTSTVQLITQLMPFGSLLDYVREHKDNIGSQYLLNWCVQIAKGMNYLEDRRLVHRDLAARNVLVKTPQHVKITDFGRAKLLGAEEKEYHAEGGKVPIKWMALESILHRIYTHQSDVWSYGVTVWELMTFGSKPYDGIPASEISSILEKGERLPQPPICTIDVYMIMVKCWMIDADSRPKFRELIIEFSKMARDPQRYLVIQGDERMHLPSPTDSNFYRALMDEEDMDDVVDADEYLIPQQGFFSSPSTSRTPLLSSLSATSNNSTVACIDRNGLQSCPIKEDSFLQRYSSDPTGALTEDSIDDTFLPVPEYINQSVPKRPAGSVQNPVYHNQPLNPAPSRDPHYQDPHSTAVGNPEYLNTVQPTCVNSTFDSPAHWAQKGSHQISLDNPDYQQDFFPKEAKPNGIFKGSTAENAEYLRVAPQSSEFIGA
T1 sequence (P00533 with tags, fused parts or gaps DEL746-750/T790M limits assumed): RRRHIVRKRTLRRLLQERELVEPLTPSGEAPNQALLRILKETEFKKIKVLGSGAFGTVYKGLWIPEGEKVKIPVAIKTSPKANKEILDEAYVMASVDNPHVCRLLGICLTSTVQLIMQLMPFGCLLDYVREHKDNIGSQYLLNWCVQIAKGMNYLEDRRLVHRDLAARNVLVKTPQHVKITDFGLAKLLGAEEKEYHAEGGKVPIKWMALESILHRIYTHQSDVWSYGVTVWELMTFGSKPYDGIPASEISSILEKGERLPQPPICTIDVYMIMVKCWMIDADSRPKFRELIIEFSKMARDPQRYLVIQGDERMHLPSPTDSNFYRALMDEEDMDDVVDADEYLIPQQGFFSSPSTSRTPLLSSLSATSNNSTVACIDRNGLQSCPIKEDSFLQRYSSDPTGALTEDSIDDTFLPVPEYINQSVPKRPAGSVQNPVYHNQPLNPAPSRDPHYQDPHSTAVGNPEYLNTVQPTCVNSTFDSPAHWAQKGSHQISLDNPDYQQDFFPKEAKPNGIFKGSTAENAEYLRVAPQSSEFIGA
T6 sequence (P00533 25-1210 T790M/C797S/L858R): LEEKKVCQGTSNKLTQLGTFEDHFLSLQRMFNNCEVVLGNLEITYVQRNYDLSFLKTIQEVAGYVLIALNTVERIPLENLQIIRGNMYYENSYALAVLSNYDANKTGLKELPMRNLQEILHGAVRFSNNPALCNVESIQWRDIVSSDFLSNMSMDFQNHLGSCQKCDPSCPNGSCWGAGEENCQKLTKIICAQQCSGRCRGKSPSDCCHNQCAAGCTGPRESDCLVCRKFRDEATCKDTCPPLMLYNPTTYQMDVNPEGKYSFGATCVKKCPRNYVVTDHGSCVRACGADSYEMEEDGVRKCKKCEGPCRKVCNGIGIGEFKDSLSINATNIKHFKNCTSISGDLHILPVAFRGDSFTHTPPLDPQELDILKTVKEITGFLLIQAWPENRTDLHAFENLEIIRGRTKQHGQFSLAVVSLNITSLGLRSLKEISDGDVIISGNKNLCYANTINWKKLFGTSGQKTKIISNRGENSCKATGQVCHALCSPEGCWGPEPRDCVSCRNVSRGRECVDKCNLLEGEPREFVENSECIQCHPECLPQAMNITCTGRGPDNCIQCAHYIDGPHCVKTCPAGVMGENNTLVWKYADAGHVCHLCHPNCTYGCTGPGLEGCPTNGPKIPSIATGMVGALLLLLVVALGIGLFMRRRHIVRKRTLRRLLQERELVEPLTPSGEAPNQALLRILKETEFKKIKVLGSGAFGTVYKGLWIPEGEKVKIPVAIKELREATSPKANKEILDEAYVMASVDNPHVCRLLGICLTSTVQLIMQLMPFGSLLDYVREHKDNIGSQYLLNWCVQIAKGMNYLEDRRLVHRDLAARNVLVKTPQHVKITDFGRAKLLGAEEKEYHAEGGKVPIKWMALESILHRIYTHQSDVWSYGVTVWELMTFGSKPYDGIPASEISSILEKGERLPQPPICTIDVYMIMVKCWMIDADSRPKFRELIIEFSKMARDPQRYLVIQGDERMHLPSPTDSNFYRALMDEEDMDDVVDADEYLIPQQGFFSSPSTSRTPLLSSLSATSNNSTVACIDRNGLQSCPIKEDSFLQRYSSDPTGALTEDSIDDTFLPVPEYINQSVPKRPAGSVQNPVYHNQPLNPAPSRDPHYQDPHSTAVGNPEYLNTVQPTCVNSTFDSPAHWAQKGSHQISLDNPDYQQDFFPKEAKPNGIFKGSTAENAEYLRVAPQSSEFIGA
T9 sequence (P00533 25-1210 L858R): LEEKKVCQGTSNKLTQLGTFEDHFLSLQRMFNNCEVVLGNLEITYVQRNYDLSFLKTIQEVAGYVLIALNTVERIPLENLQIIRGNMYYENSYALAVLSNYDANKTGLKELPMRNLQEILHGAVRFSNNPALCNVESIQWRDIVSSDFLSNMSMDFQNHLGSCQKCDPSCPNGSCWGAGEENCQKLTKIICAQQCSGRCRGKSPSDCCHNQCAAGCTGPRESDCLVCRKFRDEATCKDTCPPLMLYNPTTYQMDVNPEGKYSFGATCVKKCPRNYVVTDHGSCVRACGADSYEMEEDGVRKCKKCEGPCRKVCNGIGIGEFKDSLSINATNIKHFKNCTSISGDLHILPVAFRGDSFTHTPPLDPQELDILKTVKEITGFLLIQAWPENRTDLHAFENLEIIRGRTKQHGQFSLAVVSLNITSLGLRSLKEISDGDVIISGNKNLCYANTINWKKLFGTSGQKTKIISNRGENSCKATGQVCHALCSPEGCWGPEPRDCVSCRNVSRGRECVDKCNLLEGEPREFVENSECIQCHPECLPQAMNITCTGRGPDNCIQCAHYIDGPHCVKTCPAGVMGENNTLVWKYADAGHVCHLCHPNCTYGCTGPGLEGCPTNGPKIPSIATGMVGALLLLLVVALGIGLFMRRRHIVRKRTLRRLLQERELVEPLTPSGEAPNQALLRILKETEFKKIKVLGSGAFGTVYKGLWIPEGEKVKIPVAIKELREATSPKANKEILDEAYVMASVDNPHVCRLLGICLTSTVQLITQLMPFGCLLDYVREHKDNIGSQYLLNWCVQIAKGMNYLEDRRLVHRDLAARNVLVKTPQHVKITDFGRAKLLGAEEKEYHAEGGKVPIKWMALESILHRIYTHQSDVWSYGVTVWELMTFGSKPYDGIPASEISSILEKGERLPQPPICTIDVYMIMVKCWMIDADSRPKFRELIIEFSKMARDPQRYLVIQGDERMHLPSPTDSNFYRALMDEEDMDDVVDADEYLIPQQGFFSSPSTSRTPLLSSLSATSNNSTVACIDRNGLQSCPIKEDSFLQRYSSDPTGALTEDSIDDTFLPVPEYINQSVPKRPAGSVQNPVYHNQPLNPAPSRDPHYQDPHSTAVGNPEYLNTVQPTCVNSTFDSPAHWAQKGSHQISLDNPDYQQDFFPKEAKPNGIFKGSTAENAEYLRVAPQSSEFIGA
T5 sequence (P00533 with tags, fused parts or gaps DEL746-750/C797S limits assumed): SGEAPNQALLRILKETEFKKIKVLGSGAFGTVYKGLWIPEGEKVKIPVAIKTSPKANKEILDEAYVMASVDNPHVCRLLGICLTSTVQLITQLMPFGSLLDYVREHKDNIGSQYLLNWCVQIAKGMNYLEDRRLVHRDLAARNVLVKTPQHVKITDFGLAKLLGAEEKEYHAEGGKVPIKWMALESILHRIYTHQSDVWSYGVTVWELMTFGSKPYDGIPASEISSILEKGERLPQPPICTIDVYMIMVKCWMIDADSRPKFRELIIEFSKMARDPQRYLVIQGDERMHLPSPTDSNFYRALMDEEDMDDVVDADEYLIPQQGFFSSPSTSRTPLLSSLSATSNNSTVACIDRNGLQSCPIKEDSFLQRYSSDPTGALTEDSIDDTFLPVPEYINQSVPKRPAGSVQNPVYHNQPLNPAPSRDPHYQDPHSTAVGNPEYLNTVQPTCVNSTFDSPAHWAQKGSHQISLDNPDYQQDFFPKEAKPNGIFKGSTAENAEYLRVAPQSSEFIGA

| SMILES | GI50 (A-431) [nM] | IC50 (EGFR Exon19Del/T790M) [nM] | IC50 (EGFR wild type) [nM] | IC50 [1] [nM] | IC50 (EGFR L858R/T790M) [nM] | IC50 (EGFR (d746-750 C797S)) [nM] | IC50 (EGFR[T790M/C797S/L858R]) [nM] | IC50 (EGFR (C797S L858R)) [nM] | IC50 (EGFR Exon19Del) [nM] | GI50 (PC-9) [nM] | GI50 [2, 3] [nM] | GI50 [2, 4] [nM] | GI50 [2, 5] [nM] | GI50 [2, 6] [nM] | GI50 [2, 7] [nM] | GI50 [2, 8] [nM] | GI50 [2, 9] [nM] | IC50 (EGFR L858R) [nM] |
| --- | --- | --- | --- | --- | --- | --- | --- | --- | --- | --- | --- | --- | --- | --- | --- | --- | --- | --- |
| C[C@@H]1CCCOc2ccccc2-c2cc(cn(C)c2=O)C(=O)Nc2nc3ccc(N4CCN(C)CC4)cc3n2C1 [Example A109, (12R)-12,27-dimethyl-17-(4-methylpiperazin-1-yl)-8-oxa-14,21,23,27-tetraazapentacyclo[23.3.1.0^{2,7}.0^{14,22}.0^{15,20}]nonacosa-1(29),2(7),3,5,15,17,19,21,25-nonaene-24,28-dione] | 489 | 7.9 | 219 | 7.6 | 11 | 3.1 | 10 | 9.8 | 4.7 | 15 | 1.7 | 15 | 23 | 27 | 34 | 21 | 16 | 16 |
| C[C@@H]1CCCOc2ccc(F)cc2-c2cc(cn(C)c2=O)C(=O)Nc2nc3ccc(N4CCN(C)CC4)cc3n2C1 [Example A110, (12R)-4-fluoro-12,27-dimethyl-17-(4-methylpiperazin-1-yl)-8-oxa-14,21,23,27-tetraazapentacyclo[23.3.1.0^{2,7}.0^{14,22}.0^{15,20}]nonacosa-1(29),2(7),3,5,15,17,19,21,25-nonaene-24,28-dione] | 529 | 2.9 | 216 | 3.2 | 5.1 | 1.7 | 6.1 | 4.9 | 2.8 | 112 | 2.6 | 26 | 14 | 30 | 50 | 9.6 | 22 | 6.2 |
| C[C@@H]1CCCOc2cc(F)c(F)cc2-c2cc(cn(C)c2=O)C(=O)Nc2nc3ccc(N4CCN(C)CC4)cc3n2C1 [Example A111, (12R)-4,5-difluoro-12,27-dimethyl-17-(4-methylpiperazin-1-yl)-8-oxa-14,21,23,27-tetraazapentacyclo[23.3.1.0^{2,7}.0^{14,22}.0^{15,20}]nonacosa-1(29),2(7),3,5,15,17,19,21,25-nonaene-24,28-dione] | 8230 | 46 | 607 | 47 | 86 | 18 | 63 | 40 | 21 | 334 | 30.3 | 326 | 125 | 309 | 658 | 103 | 325 | 36 |
